Results: patent US11466044B2 (WAYNE STATE UNIVERSITY, priority 2017, dated 2022)
In brackets after ≈: the same amount, converted by molar mass. Read-outs that look alike come from different tables or passages of the source.

Tests used:
[1] = test system: P aeruginosa; experiment: MIC by broth microdilution, P aeruginosa isolates; format: cell-based, Pseudomonas aeruginosa; settings: strain AG220 Pseudomonas aeruginosa ATCC27853; read-out: MIC AG220 P. aerugin
[2] = test system: Acinetobacter baumannii pittii AG225; experiment: MIC by broth microdilution, Acinetobacter baumannii; format: cell-based; settings: strain AG225 Acinetobacter baumannii pittii
[3] = test system: E coli wild type; experiment: MIC by broth microdilution, wild type E coli; format: cell-based; settings: for MIC: Escherichia coli
[4] = test system: Enterobacter cloacae AG290; experiment: MIC by broth microdilution, Enterobacter cloacae; format: cell-based; settings: strain AG290 Enterobacter cloacae; read-out: MIC AG290 E. cloacae
[5] = test system: Klebsiella pneumonia AG215; experiment: MIC by broth microdilution, Klebsiella pneumonia; format: cell-based; settings: Klebsiella pneumoniae; strain AG215 Klebsiella pneumonia; read-out: MIC AG215 K. pneumon
[6] = test system: E coli carrying specific resistance determinants; experiment: MIC by broth microdilution, E coli carrying specific resistance determinants; format: cell-based; settings: for MIC: Escherichia coli
[7] = test system: M. smegmatis SZ380; experiment: MIC by broth microdilution, M. smegmatis; settings: Table 5 (Example 3)
[8] = test system: M. abscessus; experiment: MIC by broth microdilution, M. abscessus; format: cell-based; settings: for MIC: Mycobacteroides abscessus
[9] = ATCC25922, strain AG212 E. coli (ATCC25922), read-out: MIC AG212 E. coli

Row | Molecule | MIC [1] [µg/mL] | MIC [2] [µg/mL] | MIC [3, 9] [µg/mL] | MIC [4] [µg/mL] | MIC [5] [µg/mL] | other results
1 | CCC(O)C1O[C@H](O[C@@H]2C(N)C[C@@H](N)C(O)[C@H]2O[C@@H]2O[C@H](CO)[C@H](O[C@H]3O[C@@H](CN)[C@@H](O)C(O)C3N)C2O)C(N)[C@@H](O)[C@@H]1O (some centres unmarked) [Compound 192] | > 64 | 8 (≈ 12.4 µM) | 4 (≈ 6.21 µM) | 2 to 4 (≈ 3.11 to 6.21 µM) | 2 (≈ 3.11 µM) | 
2 | CCC[C@@H]1C(CNCCO)O[C@H](O[C@@H]2C(N)C[C@@H](N)C(O)[C@H]2O[C@@H]2O[C@H](CNCCO)[C@H](O[C@H]3OC(CN)[C@@H](O)C(O)C3N)C2O)[C@@H](N)C1O (some centres unmarked) [Compound 193] | > 64 | 32 (≈ 44 µM) | 4 (≈ 5.5 µM) | 2 (≈ 2.75 µM) | 2 (≈ 2.75 µM) | 
3 | NCC1O[C@H](O[C@@H]2C(O)[C@H](O[C@@H]3C(O)[C@H](N)CC(N)[C@H]3O[C@H]3OC(CO)[C@@H](CCCO)C(O)[C@@H]3N)O[C@@H]2CO)C(N)C(O)[C@@H]1O (some centres unmarked) [Compound 195] | 64 (≈ 97.3 µM) | 8 (≈ 12.2 µM) | 8 (≈ 12.2 µM) | 4 (≈ 6.08 µM) | 2 to 4 (≈ 3.04 to 6.08 µM) | 
4 | NCC1O[C@H](O[C@@H]2C(O)[C@H](O[C@@H]3C(O)[C@H](N)CC(N)[C@H]3O[C@H]3OC(CO)[C@@H](CCO)C(O)[C@@H]3N)O[C@@H]2CO)C(N)C(O)[C@@H]1O (some centres unmarked) [Compound 197] | 32 (≈ 49.7 µM) | 2 (≈ 3.11 µM) | 2 to 4 (≈ 3.11 to 6.21 µM) | 1 to 2 (≈ 1.55 to 3.11 µM) | 1 (≈ 1.55 µM) | 
5 | NCC1O[C@H](O[C@@H]2C(O)[C@H](O[C@@H]3C(O)[C@H](N)CC(N)[C@H]3O[C@H]3OC(CO)[C@@H](CC(O)CO)C(O)[C@@H]3N)O[C@@H]2CO)C(N)C(O)[C@@H]1O (some centres unmarked) [Compound 198] | 16 (≈ 23.7 µM) | 8 (≈ 11.9 µM) | 8 (≈ 11.9 µM) | 4 (≈ 5.94 µM) | 2 to 4 (≈ 2.97 to 5.94 µM) | 
6 | NC[C@@H]1O[C@H](O[C@@H]2C(O)[C@H](O[C@@H]3C(O)[C@H](N)CC(N)[C@H]3O[C@H]3OC4C(O)CCCO[C@H]4[C@H](O)C3N)O[C@@H]2CO)C(N)C(O)[C@@H]1O (some centres unmarked) [Compound 199] | > 32 | > 32 | > 32 | > 32 | 32 (≈ 48.8 µM) | 
7 | CN[C@@H]1[C@@H](O)[C@@H](O[C@@H]2[C@@H](O)[C@H](O[C@H]3OC(CNCCO)=CC[C@H]3N)[C@@H](N)C[C@H]2NC(=O)[C@@H](O)CCN)OC[C@]1(C)O [PLZ, plazomicin, reference compound] |  |  |  |  |  | MIC ([6]; read-out: MIC E. coli AG106 AAC(2′)-Ia): 8 to 16 µg/mL (≈ 13.5 to 27 µM); MIC ([6]; read-out: MIC E. coli pGB2armA armA): > 128 µg/mL; MIC ([6]; read-out: MIC E. coli pH434 AAC(2′)-Ib): 8 µg/mL (≈ 13.5 µM); MIC ([3]; WT, Table 5 (Example 3), read-out: MIC E. coli WT): 0.5 to 1 µg/mL (≈ 0.844 to 1.69 µM); MIC ([7]; Mycolicibacterium smegmatis, SZ380, read-out: MIC M. smegmatis SZ380 WT, SZ380 WT): 0.25 µg/mL (≈ 0.422 µM); MIC ([8]; ATCC19977, ATCC 19977 WT, Table 5 (Example 3), read-out: MIC M. abscessus ATCC 19977 WT): 1 µg/mL (≈ 1.69 µM); MIC ([8]; read-out: MIC M. abscessus clinical isolate): 4 µg/mL (≈ 6.75 µM); MIC ([8]; read-out: MIC M. abscessus engineered Δeis2): 1 µg/mL (≈ 1.69 µM)
8 | gentamicin [reference compound] |  |  |  |  |  | MIC E. coli AG106 AAC(2′)-Ia ([6]; AG106 AAC(2′)-Ia, Table 5 (Example 3)): 2 to 4 µg/mL; MIC E. coli pGB2armA armA ([6]; pGB2armA armA, Table 5 (Example 3)): >128 μg/ml; MIC E. coli WT ([3]; WT, Table 5 (Example 3)): 0.5 µg/mL; MIC M. smegmatis SZ380 WT ([7]; SZ380 WT): 1 µg/mL; MIC M. abscessus ATCC 19977 WT ([8]; ATCC 19977 WT, Table 5 (Example 3)): 2 to 4 µg/mL; MIC M. abscessus engineered Δeis2 ([8]; engineered Δeis2, Table 5 (Example 3)): 2 µg/mL
